What is called IC50 is the midpoint of a concentration-inhibition curve.

Some results are limits rather than exact numbers.

One assay deals with T1, USP28 (His-tagged USP28-FL-mammalian) (Homo sapiens, UniProt Q96RU2).
T1 construct: Expression of USP28 (1-1077)-TEV-6*His (pTT5 vector); made in house; host or cells: Expi293f cells (pTT5 vector)
T1 sequence (Q96RU2 1-1077): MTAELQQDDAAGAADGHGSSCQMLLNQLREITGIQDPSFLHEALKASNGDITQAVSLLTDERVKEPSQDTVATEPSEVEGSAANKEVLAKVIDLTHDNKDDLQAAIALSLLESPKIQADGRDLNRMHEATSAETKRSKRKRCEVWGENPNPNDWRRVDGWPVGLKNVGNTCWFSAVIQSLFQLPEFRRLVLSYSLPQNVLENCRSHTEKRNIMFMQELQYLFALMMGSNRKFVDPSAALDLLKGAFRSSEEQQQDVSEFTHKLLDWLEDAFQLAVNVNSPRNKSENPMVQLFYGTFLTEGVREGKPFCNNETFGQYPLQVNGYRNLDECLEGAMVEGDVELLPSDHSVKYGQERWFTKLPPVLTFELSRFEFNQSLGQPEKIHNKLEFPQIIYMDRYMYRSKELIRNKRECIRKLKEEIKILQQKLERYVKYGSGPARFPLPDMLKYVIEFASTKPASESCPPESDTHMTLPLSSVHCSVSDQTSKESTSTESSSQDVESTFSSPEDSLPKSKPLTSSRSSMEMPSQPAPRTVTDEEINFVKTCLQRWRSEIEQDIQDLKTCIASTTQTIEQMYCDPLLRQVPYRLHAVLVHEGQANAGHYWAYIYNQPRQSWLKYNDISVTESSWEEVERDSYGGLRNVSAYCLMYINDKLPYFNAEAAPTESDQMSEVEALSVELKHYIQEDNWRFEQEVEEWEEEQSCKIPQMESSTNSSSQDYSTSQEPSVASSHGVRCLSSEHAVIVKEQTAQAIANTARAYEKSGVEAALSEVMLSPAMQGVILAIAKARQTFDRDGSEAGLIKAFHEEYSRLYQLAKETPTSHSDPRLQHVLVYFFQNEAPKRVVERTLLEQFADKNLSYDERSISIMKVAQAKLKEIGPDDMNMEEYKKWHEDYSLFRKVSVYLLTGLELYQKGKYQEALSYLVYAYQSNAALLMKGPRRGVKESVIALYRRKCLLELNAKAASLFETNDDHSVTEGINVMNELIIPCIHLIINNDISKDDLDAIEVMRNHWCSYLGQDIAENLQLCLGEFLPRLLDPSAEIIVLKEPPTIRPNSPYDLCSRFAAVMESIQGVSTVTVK
The assay is described as follows: Ubiquitin-Rhodamine 110 Assay for USP28 Activity, Example A-1(a). Conditions: Ubiquitin-Rhodamine 110 assay, Example A-1(a); read-out: USP28 A-1(a) IC50 range. Type of assay: biochemical. In outline: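 IC50 from 4-parameter logistic fit of percent inhibition versus no-enzyme and DMSO controls; compounds 25 μM to 1.3 nM, 3-fold. Ub-Rh110 cleavage (25 nM, below Km) by […] mammalian-expressed USP28-FL-His ran 45 min at room temperature, stopped with 10 mM citric acid, read ex 485/em 535.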
`Cc1ccc2c(N)c(C(=O)N[C@H]3CCc4cc(N5CCNCC5)cc(F)c4C3)sc2n1` (single isomer, unassigned) [Example 11-11]: the IC50 lay within 200 to 2000 nM. Turning to `Cc1ccc2c(N)c(C(=O)N[C@H]3CCc4cc(N5CCN[C@H](CO)C5)ccc4C3)sc2n1` (single isomer, unassigned) [Example 7-8], the concentration for half-maximal inhibition (IC50) lay in the range of 200 to 2000 nM. With `Cc1ccc2c(N)c(C(=O)N[C@H]3CCc4cc(N5CCN[C@@H](CO)C5)ccc4C3)sc2n1` (single isomer, unassigned) [Example 7-9], the concentration for half-maximal inhibition (IC50) is 200 to 2000 nM.

For `Cc1ccc2c(N)c(C(=O)N[C@@H]3COc4cc(N5CCNCC5)cc(F)c4C3)sc2n1` [Example 10-5, (S)-3-amino-N-(5-fluoro-7-(piperazin-1-yl)chroman-3-yl)-6-methylthieno[2,3-b]pyridine-2-carboxamide], the IC50 lay within 200 to 2000 nM.

On to `Cc1cnc2c(N)c(C(=O)N[C@@H]3CCc4cc(N5CCNC[C@@H](O)C5)ccc4C3)sc2n1` (single isomer, unassigned) [Example 7-5], for which the concentration for half-maximal inhibition (IC50) lay within 50 to 200 nM.

Consider `Cc1ccc2c(N)c(C(=O)N[C@H]3COc4cc(N5CC6CNCC(C5)O6)cc(F)c4C3)sc2n1` [Example 10-6, N-((3R)-7-(9-oxa-3,7-diazabicyclo[3.3.1]nonan-3-yl)-5-fluorochroman-3-yl)-3-amino-6-methylthieno[2,3-b]pyridine-2-carboxamide], for which the IC50 was in the range of 1 to 50 nM. The same measure, in the same setting: for `Cc1cnc2c(N)c(C(=O)N[C@@H]3CCc4cc(N5CC6CCC(C5)N6)cc(F)c4C3)sc2n1` (single isomer, unassigned) [Example 11-14] the value was 1 to 50 nM; for `Cc1cnc2c(N)c(C(=O)N[C@@H]3CCc4cc(N5CC6CCC(C5)N6)ccc4C3)sc2n1` (single isomer, unassigned) [Example 11-8], 200 to 2000 nM; for `Cc1ccc2c(N)c(C(=O)N[C@@H]3COc4cc(N5CCNCC5)ccc4[C@@H]3C)sc2n1` (single isomer, unassigned) [Example 11-18], more than 2000 nM. On to `[2H]C1([2H])NC([2H])([2H])C([2H])([2H])N(c2cc(F)c3c(c2)OC[C@H](NC(=O)c2sc4nc(C)ccc4c2N)C3)C1([2H])[2H]` [Example 10-4, (R)-3-amino-N-(5-fluoro-7-(piperazin-l-yl-2,2,3,3,5,5,6,6-d8)chroman-3-yl)-6-methylthieno[2,3-b]pyridine-2-carboxamide], for which the IC50 is 1 to 50 nM. For `CO[C@@H]1CN(c2cc(F)c3c(c2)OC[C@H](NC(=O)c2sc4nc(C)ccc4c2N)C3)C[C@H]1N` [Example 10-2, 3-amino-N-((R)-7-((3R,4R)-3-amino-4-methoxypyrrolidin-1-yl)-5-fluorochroman-3-yl)-6-methylthieno[2,3-b]pyridine-2-carboxamide], the concentration for half-maximal inhibition (IC50) lay within 1 to 50 nM. As for `COc1ccc2c(N)c(C(=O)N[C@H]3COc4cc(N5CCNCC5)cc(F)c4C3)sc2n1` [Example 10-11, (R)-3-amino-N-(5-fluoro-7-(piperazin-1-yl)chroman-3-yl)-6-methoxythieno[2,3-b]pyridine-2-carboxamide], the IC50 was 1 to 50 nM. Regarding `Cc1cnc2c(N)c(C(=O)N[C@H]3COc4cc(N5CCNCC5)cc(F)c4C3)sc2n1` [Example 10-10, (R)-7-amino-N-(5-fluoro-7-(piperazin-1-yl)chroman-3-yl)-3-methylthieno[2,3-b]pyrazine-6-carboxamide], the half-inhibitory concentration (IC50) fell in the range of 1 to 50 nM. On the same count and under the same terms, the figure for `Cc1ccc2c(N)c(C(=O)N[C@H]3CCc4cc(N5CC6CCC(C5)N6)ccc4C3)sc2n1` [Example 11-1, N-((2S)-6-(3,8-diazabicyclo[3.2.1]octan-3-yl)-1,2,3,4-tetrahydronaphthalen-2-yl)-3-amino-6-methylthieno[2,3-b]pyridine-2-carboxamide] is 1 to 50 nM.

For the compound `Cc1ccc2c(N)c(C(=O)N[C@H]3COc4cc(O[C@H]5COC6(CNC6)C5)ccc4C3)sc2n1` (single isomer, unassigned) [Example 9-2], the IC50 fell in the range of 1 to 50 nM.

Take `Cc1ccc2c(N)c(C(=O)N[C@H]3COc4cc(C5(F)CCNCC5)ccc4C3)sc2n1` [Example 8-1, (R)-3-Amino-N-(7-(4-fluoropiperidin-4-yl)chroman-3-yl)-6-methylthieno[2,3-b]pyridine-2-carboxamide]: the IC50 lay in the range of 1 to 50 nM. Turning to `CCn1ccc2cc(C(=O)N[C@@H]3CCc4cc(N5CC6CCC(C5)N6)ccc4C3)cnc21` (single isomer, unassigned) [Example 11-10], the IC50 fell in the range of 50 to 200 nM. On the same count and under the same terms, the figure for `Cc1cc(C)c2c(N)c(C(=O)N[C@H]3COc4cc(N5CC6CC(C5)N6)cc(F)c4C3)sc2n1` [Example 10-7, N-((3R)-7-(3,6-diazabicyclo[3.1.1]heptan-3-yl)-5-fluorochroman-3-yl)-3-amino-4,6-dimethylthieno[2,3-b]pyridine-2-carboxamide] is 1 to 50 nM.

Still in this assay, the particulars now being: Ubiquitin-Rhodamine 110 assay, format Example A-1(a); read-out: USP28 A-1(a) IC50 range.
In the case of `Cc1ccc2c(N)c(C(=O)N[C@H]3COc4cc(N5CC6CCC(C5)N6)c(F)c(F)c4C3)sc2n1` [Example 13-3, N-((3R)-7-(3,8-diazabicyclo[3.2.1]octan-3-yl)-5,6-difluorochroman-3-yl)-3-amino-6-methylthieno[2,3-b]pyridine-2-carboxamide], the IC50 is 200 to 2000 nM. As to `Cc1ccc2c(N)c(C(=O)N[C@@H]3CCc4cc(N5CCNCC5)cnc4C3)sc2n1` (single isomer, unassigned) [Example 15-1], the half-maximal inhibitory concentration (IC50) was more than 2000 nM. Turning to `CO[C@H]1CN(c2ccc3c(n2)CC[C@H](NC(=O)c2sc4nc(C)cc(C)c4c2N)C3)C[C@@H]1N` [Example 23-3, 3-amino-N-[(6S)-2-[(3S,4S)-3-amino-4-methoxypyrrolidin-1-yl]-5,6,7,8-tetrahydroquinolin-6-yl]-4,6-dimethylthieno[2,3-b]pyridine-2-carboxamide], the IC50 was 50 to 200 nM. With `Cc1ccc2c(N)c(C(=O)N[C@@H]3COc4c(ccc(N5CCNCC5)c4Cl)C3)sc2n1` [Example 13-8, (S)-3-amino-N-(8-chloro-7-(piperazin-1-yl)chroman-3-yl)-6-methylthieno[2,3-b]pyridine-2-carboxamide], the IC50 lay in the range of 200 to 2000 nM. As to `Cc1ccc2c(N)c(C(=O)N[C@H]3COc4nc(N5CCNCC5)ccc4C3)sc2n1` [Example 19, (R)-3-Amino-6-methyl-N-(7-(piperazin-1-yl)-3,4-dihydro-2H-pyrano[2,3-b]pyridin-3-yl)thieno[2,3-b]pyridine-2-carboxamide], the IC50 was 50 to 200 nM. Consider `Cc1ccc2c(N)c(C(=O)N[C@@H]3COc4cc(N5CCNCC5)c(Cl)cc4C3)sc2n1` (single isomer, unassigned) [Example 13-6], for which the IC50 was in the range of 1 to 50 nM. As for `Cc1ccc2c(N)c(C(=O)N[C@H]3CCc4cc(N5CCNCC5)c(F)cc4C3)sc2n1` (single isomer, unassigned) [Example 21-8], the IC50 was in the range of 200 to 2000 nM. For the compound `Cc1ccc2c(N)c(C(=O)N[C@H]3COc4c(ccc(N5CCNCC5)c4Cl)C3)sc2n1` [Example 13_7, (R)-3-amino-N-(8-chloro-7-(piperazin-1-yl)chroman-3-yl)-6-methylthieno[2,3-b]pyridine-2-carboxamide], the IC50 was 1 to 50 nM.

On to `Cc1ccc2c(N)c(C(=O)N[C@H]3CCc4c(F)c(N5CCNCC5)cc(F)c4C3)sc2n1` (single isomer, unassigned) [Example 22-1], for which the IC50 was in the range of 200 to 2000 nM. The same measure, in the same setting: the figure for `CO[C@H]1CN(c2ccc3c(n2)CC[C@H](NC(=O)c2sc4nc(C)ccc4c2N)C3)C[C@@H]1N` [Example 23-4, 3-amino-N-[(6S)-2-[(3S,4S)-3-amino-4-methoxypyrrolidin-1-yl]-5,6,7,8-tetrahydroquinolin-6-yl]-6-methylthieno[2,3-b]pyridine-2-carboxamide] is 50 to 200 nM; for `CO[C@H]1CN(c2ccc3c(n2)CC[C@@H](NC(=O)c2sc4nc(C)cnc4c2N)C3)C[C@@H]1N` (single isomer, unassigned) [Example 23-2] it is more than 2000 nM; for `Cc1ccc2c(N)c(C(=O)N[C@H]3COc4cc(N5CC6CCC(C5)N6)nc(F)c4C3)sc2n1` [Example 17, N-((3R)-7-(3,8-Diazabicyclo[3.2.1]octan-3-yl)-5-fluoro-3,4-dihydro-2H-pyrano[3,2-c]pyridin-3-yl)-3-amino-6-methylthieno[2,3-b]pyridine-2-carboxamide] it is 1 to 50 nM.

These data come from US11524966B1 (Valo Early Discovery, Inc., priority 2017, dated 2022).
